Legend:
[1] = system: réponse humorale de la souris swiss femelle à la sérumalbumine bovine; experiment: Immunoadjuvant activity: humoral antibody response to bovine serum albumin, measured by passive haemagglutination; assay type: in vivo; settings: 100 µg per mouse s.c. with 0,5 mg bovine serum albumin in aqueous solution; primary response day 28, secondary response day 36
Description: L'activité immunoadjuvante a été étudiée en mettant en jeu la réponse humorale de la souris swiss femelle à la sérumalbumine bovine.
Des groupes de huit souris âgées de 2 mois reçoivent par voie sous-cutanée 0,5 mg de sérumalbumine bovine avec ou sans les substances à tester, à raison de 100 µg par souris. Les administrations sont faites en solution aqueuse.
Au jour 28, on effectue des prélèvements du sérum sanguin sur les souris traitées et la réponse primaire en anticorps est déterminée par hémagglutination passive en utilisant des hématies de moutons traitées à la formaline et recouvertes de l'antigène étudié selon la méthode décrite par A. A. HIRATA et M.V. BRANDISSE (5. immunol.100, 541 - 648, 1968). Au jour 30 les souris reçoivent une injection de rappel avec les antigènes seuls (100 µg par souris) et au jour 36 on mesure la réponse secondaire induite par la même technique de mesure .
Les résultats de ces essais figurent dans le tableau 1 qui suit. Ce tableau contient également les résultats mesurés dans les mêmes conditions chez les animaux témoins et chez des animaux qui ont été traités de la même manière avec le MDP à titre de substance de comparaison.

[2] = system: globules rouges de mouton; experiment: Immunosuppression test: high dose given before sheep red blood cells, haemolytic plaques of splenocytes counted (Cunningham method); assay type: in vivo, souris; settings: 1 mg per mouse 2 days before 10^8 sheep red blood cells; splenocytes taken 4 days after; experiment repeated 3 times
Description: Dans l'expérience qui figure au tableau Ibis et qui a été répétéa 3 fois, le MDP et les autres substances ont été injectés à des souris à une dose 10 ou 20 fois plus élevée que d'habitude (1 mg) 2 jours avant l'injection de 10^8 globules rouges de mouton. Les splénocytes ont été pélevés et mis en culture 4 jours après l'injection de globules rouges de mouton et le nombre de plages hémolytiques dosées selon la méthode de Cunningham.

CCCCOC(=O)[C@@H](CCCC)NC(=O)[C@H](C)NC(=O)[C@@H](C)O[C@H]1[C@H](O)[C@@H](CO)OC(O)[C@@H]1NC(C)=O (stereo partly drawn) [compound 2]
activité immunoadjuvante [1]: une activité qui se rapproche sensiblement

CCCCOC(=O)[C@@H](CCCC)NC(=O)[C@H](C)NC(=O)CO[C@H]1[C@H](O)[C@@H](CO)OC(O)[C@@H]1NC(C)=O (stereo partly drawn) [compound 5]
activité immunoadjuvante [1]: une activité qui se rapproche sensiblement

CCCC[C@@H](NC(=O)[C@H](C)NC(=O)[C@@H](C)O[C@H]1[C@H](O)[C@@H](CO)OC(O)[C@@H]1NC(C)=O)C(N)=O (stereo partly drawn) [compound 1]
activité immunoadjuvante [1]: n'a pas témoigné d'une activité spécifique

CCCCOC(=O)[C@@H](CCC(N)=O)NC(=O)[C@H](C)NC(=O)[C@@H](C)O[C@H]1[C@H](O)[C@@H](CO)OC(O)[C@@H]1NC(C)=O (stereo partly drawn) [murabutide]
inhibition de la production d'anticorps (nombre de plages hémolytiques) [2]: inhibe totalement la production d'anticorps

CCCC[C@@H](NC(=O)[C@H](C)NC(=O)[C@@H](C)O[C@H]1[C@H](O)[C@@H](CO)OC(O)[C@@H]1NC(C)=O)C(=O)OC (stereo partly drawn) [compound 6]
activité immunoadjuvante [1]: une activité qui se rapproche sensiblement

CC(=O)N[C@H]1C(O)O[C@H](CO)[C@@H](O)[C@@H]1O[C@H](C)C(=O)N[C@@H](C)C(=O)N[C@H](CCC(=O)O)C(N)=O (stereo partly drawn) [MDP, N-acétyl-muramyl-L-alanyl-D-isoglutamine]
inhibition de la production d'anticorps (nombre de plages hémolytiques) [2]: inhibe totalement la production d'anticorps

Source: patent EP0201420A1, “2-(2-Acetamido-2-deoxy-3-O-D-glucopyranosyl)-alkanoyl-aminoacyl-nor leucin glycopeptides or derivatives of these glycopeptides, and immunoadjuvant compositions containing them” (ANVAR Agence Nationale de Valorisation de la Recherche, priority 1985, dated 1986)
